In ChEMBL document CHEMBL1146208, “Discovery and optimization of novel, non-steroidal glucocorticoid receptor modulators” (Bioorg Med Chem Lett, 2007):

Legend:
[1] = molecular target: T1, Glucocorticoid receptor (Homo sapiens) (UniProt P04150); experiment: Displacement of [3H]dexamethasone from glucocorticoid receptor at 1 uM
T1 sequence (whole entry): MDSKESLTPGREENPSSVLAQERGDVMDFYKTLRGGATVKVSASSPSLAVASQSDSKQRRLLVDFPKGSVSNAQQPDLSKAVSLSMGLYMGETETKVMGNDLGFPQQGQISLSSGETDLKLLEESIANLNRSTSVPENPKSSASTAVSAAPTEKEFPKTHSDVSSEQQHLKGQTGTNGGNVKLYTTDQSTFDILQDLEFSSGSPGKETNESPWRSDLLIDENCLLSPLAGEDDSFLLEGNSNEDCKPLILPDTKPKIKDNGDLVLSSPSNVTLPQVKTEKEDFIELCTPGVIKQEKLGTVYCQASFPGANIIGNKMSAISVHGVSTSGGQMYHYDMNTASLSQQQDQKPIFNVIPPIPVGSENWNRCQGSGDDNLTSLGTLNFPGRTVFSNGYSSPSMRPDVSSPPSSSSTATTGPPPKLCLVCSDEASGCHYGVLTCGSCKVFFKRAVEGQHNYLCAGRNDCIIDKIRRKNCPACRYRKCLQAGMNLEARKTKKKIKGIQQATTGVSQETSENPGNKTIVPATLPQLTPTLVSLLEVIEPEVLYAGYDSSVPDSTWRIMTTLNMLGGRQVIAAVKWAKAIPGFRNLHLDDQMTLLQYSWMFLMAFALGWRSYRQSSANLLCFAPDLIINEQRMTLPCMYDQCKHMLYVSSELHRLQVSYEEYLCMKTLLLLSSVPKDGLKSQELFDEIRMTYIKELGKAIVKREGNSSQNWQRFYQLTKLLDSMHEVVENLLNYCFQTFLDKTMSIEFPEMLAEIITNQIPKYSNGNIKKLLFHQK

Glucocorticoid receptor [2] = molecular target: T2, Glucocorticoid receptor (Homo sapiens, UniProt P04150); experiment: Displacement of [3H]dexamethasone from human recombinant GR
T2 sequence (P04150 whole entry): T1 sequence (whole entry)

Glucocorticoid receptor [3] = molecular target: T2, Glucocorticoid receptor; experiment: Antagonist activity at human GR; type: functional
[4] = molecular target: T3, Mineralocorticoid receptor (Homo sapiens, UniProt P08235); experiment: biochemical
T3 sequence (P08235 whole entry): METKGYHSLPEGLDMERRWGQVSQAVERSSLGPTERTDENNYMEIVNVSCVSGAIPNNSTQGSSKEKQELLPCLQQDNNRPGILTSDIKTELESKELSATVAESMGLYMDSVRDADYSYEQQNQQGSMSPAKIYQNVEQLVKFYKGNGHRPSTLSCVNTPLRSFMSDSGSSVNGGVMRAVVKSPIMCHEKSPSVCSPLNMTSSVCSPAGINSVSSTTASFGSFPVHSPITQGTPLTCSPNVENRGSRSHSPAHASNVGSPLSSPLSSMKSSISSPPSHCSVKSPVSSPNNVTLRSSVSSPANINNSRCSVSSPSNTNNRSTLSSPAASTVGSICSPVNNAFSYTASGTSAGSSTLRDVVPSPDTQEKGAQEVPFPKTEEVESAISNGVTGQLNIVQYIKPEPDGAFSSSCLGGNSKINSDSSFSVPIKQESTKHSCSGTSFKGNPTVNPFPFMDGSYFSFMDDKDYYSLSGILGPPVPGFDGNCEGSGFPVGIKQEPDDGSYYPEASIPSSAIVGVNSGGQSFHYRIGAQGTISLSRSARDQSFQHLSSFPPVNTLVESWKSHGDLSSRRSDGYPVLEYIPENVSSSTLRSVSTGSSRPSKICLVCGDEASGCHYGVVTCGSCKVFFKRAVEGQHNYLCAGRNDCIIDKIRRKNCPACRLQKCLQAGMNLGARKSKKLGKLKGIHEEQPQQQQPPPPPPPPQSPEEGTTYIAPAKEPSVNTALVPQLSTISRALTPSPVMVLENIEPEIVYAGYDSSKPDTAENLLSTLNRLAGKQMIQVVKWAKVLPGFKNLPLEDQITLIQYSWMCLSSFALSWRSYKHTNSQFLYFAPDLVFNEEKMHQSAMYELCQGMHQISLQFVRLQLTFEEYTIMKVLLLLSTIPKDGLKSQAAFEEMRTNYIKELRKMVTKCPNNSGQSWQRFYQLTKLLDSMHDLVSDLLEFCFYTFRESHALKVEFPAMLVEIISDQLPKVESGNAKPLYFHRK
Description: Displacement of [3H]aldosterone from mineralocorticoid receptor expressed in Sf9 cells

Progesterone receptor = molecular target: T4, Progesterone receptor (Homo sapiens, UniProt P06401); experiment: Displacement of [3H]progesterone from progesterone receptor
T4 sequence (P06401 whole entry): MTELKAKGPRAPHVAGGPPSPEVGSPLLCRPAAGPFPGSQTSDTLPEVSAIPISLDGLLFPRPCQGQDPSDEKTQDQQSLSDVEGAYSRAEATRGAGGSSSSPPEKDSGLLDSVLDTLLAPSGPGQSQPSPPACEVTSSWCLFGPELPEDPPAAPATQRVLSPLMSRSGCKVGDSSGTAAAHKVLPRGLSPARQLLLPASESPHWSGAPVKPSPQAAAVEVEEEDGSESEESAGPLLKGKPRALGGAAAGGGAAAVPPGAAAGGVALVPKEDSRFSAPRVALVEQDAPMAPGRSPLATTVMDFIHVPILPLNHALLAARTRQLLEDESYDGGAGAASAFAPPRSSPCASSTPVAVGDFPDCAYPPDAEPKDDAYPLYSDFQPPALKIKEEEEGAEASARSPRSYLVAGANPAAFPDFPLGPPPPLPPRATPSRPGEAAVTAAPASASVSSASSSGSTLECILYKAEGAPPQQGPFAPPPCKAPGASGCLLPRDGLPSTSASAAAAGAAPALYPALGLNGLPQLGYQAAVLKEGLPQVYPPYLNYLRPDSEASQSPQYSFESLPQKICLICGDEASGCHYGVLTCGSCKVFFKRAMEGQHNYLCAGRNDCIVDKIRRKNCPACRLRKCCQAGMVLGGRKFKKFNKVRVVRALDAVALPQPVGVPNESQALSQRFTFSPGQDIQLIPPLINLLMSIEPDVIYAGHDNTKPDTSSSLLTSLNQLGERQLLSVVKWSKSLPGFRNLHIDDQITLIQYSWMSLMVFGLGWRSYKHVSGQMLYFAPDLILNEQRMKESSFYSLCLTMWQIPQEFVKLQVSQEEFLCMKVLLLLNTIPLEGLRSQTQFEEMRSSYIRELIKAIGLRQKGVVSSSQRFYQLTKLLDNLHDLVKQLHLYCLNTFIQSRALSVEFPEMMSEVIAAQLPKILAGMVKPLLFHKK

[5] = Metabolic stability in human […] S9 fraction after 30 mins; type: ADME; settings: read-out: Stability
Plasma = experiment: Drug lavel in rat plasma at 1 mg/kg, iv; type: ADME, organism-based; design: dose 1 mg/kg, route intravenous; settings: in vivo
Brain = experiment: Drug level in rat brain at 1 mg/kg, iv; type: ADME, organism-based; design: dose 1 mg/kg, route intravenous; settings: in vivo
[6] = Cmax in rat at 5 mg/kg, po; type: ADME, organism-based; design: dose 5 mg/kg, route oral; settings: in vivo
[7] = AUC in rat at 5 mg/kg, po; type: ADME, organism-based; design: dose 5 mg/kg, route oral; settings: plasma
CYP3A4 = CYP3A4 (Homo sapiens, UniProt P08684); experiment: Inhibition of CYP3A4 at 1 uM; type: ADME
Chain of CYP3A4 (P08684 whole entry): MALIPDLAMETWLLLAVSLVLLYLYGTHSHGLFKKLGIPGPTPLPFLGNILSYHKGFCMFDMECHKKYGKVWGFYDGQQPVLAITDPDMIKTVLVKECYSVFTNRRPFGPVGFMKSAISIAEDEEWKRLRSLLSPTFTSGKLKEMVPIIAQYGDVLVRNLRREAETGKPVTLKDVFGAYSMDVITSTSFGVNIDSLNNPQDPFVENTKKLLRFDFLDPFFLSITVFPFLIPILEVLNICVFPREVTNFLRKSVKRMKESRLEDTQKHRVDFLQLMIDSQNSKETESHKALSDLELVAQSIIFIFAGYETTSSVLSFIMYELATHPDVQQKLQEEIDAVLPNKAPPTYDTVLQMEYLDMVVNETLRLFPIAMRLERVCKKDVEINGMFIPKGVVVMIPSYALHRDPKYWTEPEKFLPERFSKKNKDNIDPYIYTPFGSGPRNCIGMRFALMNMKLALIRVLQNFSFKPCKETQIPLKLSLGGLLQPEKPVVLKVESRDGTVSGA

Cn1c(N2CCC(Cc3ccccc3)CC2)c(Cc2ccccc2)c(=O)[nH]c1=O
inhibition [1]: 11%

CC(=O)Nc1ccc(C2CCN(c3[nH]c(=O)[nH]c(=O)c3Cc3ccccc3)CC2)cc1
Ki (Glucocorticoid receptor [2]): 46 nM

CC(=O)Nc1cccc(C2CCN(c3[nH]c(=O)[nH]c(=O)c3Cc3ccccc3)CC2)c1
inhibition [1]: 11%

Cn1c(=O)[nH]c(N2CCC(O)CC2)c(Cc2cccc(C(F)(F)F)c2)c1=O
Ki (Glucocorticoid receptor [2]): 4500 nM

Cn1c(=O)[nH]c(N2CCC(Cc3ccccc3)CC2)c(Cc2ccccc2)c1=O
Ki (Glucocorticoid receptor [2]): 24 nM
Ki (Glucocorticoid receptor [3]): 100 nM

O=c1[nH]c(N2CCC(c3ccccc3)CC2)c(Cc2ccc(Cl)cc2)c(=O)[nH]1
Ki (Glucocorticoid receptor [2]): 31 nM
Ki (Glucocorticoid receptor [3]): 260 nM

Cn1c(=O)[nH]c(N2CCC(O)(Cc3ccccc3)CC2)c(Cc2ccccc2)c1=O
Ki (Glucocorticoid receptor [2]): 360 nM

CC1CCN(c2[nH]c(=O)n(C)c(=O)c2Cc2ccccc2)CC1
inhibition [1]: 2%

COc1cccc(Cc2c(N3CCC(c4ccccc4)CC3)[nH]c(=O)[nH]c2=O)c1
inhibition [1]: 31%

Cn1c(=O)[nH]c(N2CCC(Cc3ccccc3)CC2)c(Cc2ccccc2Br)c1=O
Ki (Glucocorticoid receptor [2]): 33 nM
Ki (Glucocorticoid receptor [3]): 300 nM

COc1cccc(C2CCN(c3[nH]c(=O)[nH]c(=O)c3Cc3ccccc3)CC2)c1
Ki [4]: 1270 nM
Ki (Glucocorticoid receptor [2]): 9.2 nM
Ki (Glucocorticoid receptor [3]): 158 nM

O=c1[nH]c(N2CCC(Cc3ccccc3)CC2)c(Cc2ccccc2)c(=O)[nH]1
Ki (Glucocorticoid receptor [2]): 19 nM
Ki (Glucocorticoid receptor [3]): 150 nM

COc1ccc(C2CCN(c3[nH]c(=O)[nH]c(=O)c3Cc3ccccc3)CC2)cc1
Ki (Glucocorticoid receptor [2]): 45 nM

N#Cc1ccc(Cc2c(N3CCC(c4ccccc4)CC3)[nH]c(=O)[nH]c2=O)cc1
inhibition [1]: 37%

Cn1c(=O)[nH]c(N2CCC(Oc3ccccc3)CC2)c(Cc2ccccc2)c1=O
Ki (Glucocorticoid receptor [2]): 78 nM

Cn1c(=O)[nH]c(N2CCC(c3ccccc3)CC2)c(Cc2ccccc2)c1=O
Ki (Glucocorticoid receptor [2]): 20 nM
Ki (Glucocorticoid receptor [3]): 190 nM

COc1ccccc1C1CCN(c2[nH]c(=O)[nH]c(=O)c2Cc2ccccc2)CC1
Ki [4]: 298 nM
Ki (Glucocorticoid receptor [2]): 7.1 nM

O=c1[nH]c(N2CCC(c3cccc(Cl)c3)CC2)c(Cc2ccccc2)c(=O)[nH]1
Ki [4]: 527 nM

O=c1[nH]c(N2CCC(c3ccccc3)CC2)c(Cc2cccc(Br)c2)c(=O)[nH]1
Ki (Glucocorticoid receptor [2]): 14 nM
Ki (Glucocorticoid receptor [3]): 65 nM

N#Cc1cccc(Cc2c(N3CCC(c4ccccc4)CC3)[nH]c(=O)[nH]c2=O)c1
Ki (Glucocorticoid receptor [2]): 37 nM

O=c1[nH]c(N2CCC(c3ccccc3)CC2)c(Cc2cccc(Cl)c2)c(=O)[nH]1
Ki (Glucocorticoid receptor [2]): 9.1 nM
Ki (Glucocorticoid receptor [3]): 96 nM
Ki (Progesterone receptor): 7050 nM

O=c1[nH]c(N2CCC(c3ccccc3)CC2)c(Cc2ccccc2)c(=O)[nH]1
Ki [4]: 930 nM
remaining at 0.5 h [5]: 94%
Cp (Plasma): 178 ng/mL
Drug uptake (Brain): 45 ng/g
Ki (Glucocorticoid receptor [2]): 8.1 nM
Cmax [6]: 143 ng/mL
AUC [7]: 600 ng·h/mL
Ki (Glucocorticoid receptor [3]): 93 nM
inhibition at 1 µM (CYP3A4): 25%

Cn1c(=O)[nH]c(N2CCC(CCCc3ccccc3)CC2)c(Cc2ccccc2)c1=O
inhibition [1]: 18%

O=c1[nH]c(N2CCC(c3ccccc3)CC2)c(Cc2ccccc2Cl)c(=O)[nH]1
Ki [4]: 3490 nM
Ki (Glucocorticoid receptor [2]): 8.7 nM
Ki (Glucocorticoid receptor [3]): 50 nM

Cn1c(=O)[nH]c(N2CCc3ccccc3C2)c(Cc2ccccc2)c1=O
inhibition [1]: 23%
